Results from US20080261994A1, “CYCLOPROPANE COMPOUNDS AND PHARMACEUTICAL USE THEREOF” (Japan Tobacco Inc., priority 2003, published 2008).
Like-named read-outs stand apart in the source and are kept apart here.

Tests used:
Assay type in all cases: biochemical
[1] = molecular target: T1, MMP-1 (Homo sapiens, UniProt P03956); test: MMP-1 inhibitory action (Type I collagen Activity Measurement kit, FITC-labeled collagen type I)
T1 sequence (P03956 100-469): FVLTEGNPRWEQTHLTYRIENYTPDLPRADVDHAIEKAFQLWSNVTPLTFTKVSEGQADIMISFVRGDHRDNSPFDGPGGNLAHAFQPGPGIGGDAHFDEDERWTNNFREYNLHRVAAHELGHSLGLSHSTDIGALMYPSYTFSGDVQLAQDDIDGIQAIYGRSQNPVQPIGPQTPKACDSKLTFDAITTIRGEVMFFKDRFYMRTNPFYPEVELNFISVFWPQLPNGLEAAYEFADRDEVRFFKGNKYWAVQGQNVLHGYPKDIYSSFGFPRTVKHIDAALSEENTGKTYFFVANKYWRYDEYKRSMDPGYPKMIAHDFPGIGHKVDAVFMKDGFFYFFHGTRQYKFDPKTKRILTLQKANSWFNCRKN

[2] = molecular target: T2, aggrecanase-1 (Homo sapiens, UniProt O75173); test: Aggrecanase-1 inhibitory action (Particle Assay, GAG release from aggrecan-containing polyacrylamide particles)
T2 sequence (O75173 213-837): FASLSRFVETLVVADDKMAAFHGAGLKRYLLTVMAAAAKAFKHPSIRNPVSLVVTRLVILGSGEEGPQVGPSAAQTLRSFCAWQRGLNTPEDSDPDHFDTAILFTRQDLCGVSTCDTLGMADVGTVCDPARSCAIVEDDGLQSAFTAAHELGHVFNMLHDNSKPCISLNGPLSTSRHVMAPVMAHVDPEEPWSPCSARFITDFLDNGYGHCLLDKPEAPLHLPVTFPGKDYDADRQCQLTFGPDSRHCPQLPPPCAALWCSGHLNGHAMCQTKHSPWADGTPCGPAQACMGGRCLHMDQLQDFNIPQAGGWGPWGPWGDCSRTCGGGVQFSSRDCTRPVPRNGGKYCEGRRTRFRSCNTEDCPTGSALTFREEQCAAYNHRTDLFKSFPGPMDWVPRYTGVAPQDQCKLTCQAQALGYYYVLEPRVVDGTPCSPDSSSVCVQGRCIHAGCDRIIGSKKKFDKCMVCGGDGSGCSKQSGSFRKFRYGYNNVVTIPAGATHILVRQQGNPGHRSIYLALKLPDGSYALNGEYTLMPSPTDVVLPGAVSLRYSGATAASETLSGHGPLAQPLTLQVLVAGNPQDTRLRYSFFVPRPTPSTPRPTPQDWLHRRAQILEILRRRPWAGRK
Procedure, shortened: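 Enzyme and compound incubated with aggrecan-containing polyacrylamide particles in Tris-HCl buffer at 37° C for 15 h. Released GAG in supernatant measured with 1,9-dimethylmethylene blue at 595 nm against chondroitin sulfate standard; % inhibition from enzyme-free and inhibitor-free wells, reported as TC50 (μM).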

[3] = molecular target: T3, Recombinant Human MMP-13 (Homo sapiens, UniProt P45452); test: MMP-13 inhibitory activity (MMP-13 specific fluorescent substrate with quencher)
T3 construct: purchased R&D systems 511-MM
Procedure, shortened: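 Recombinant human MMP-13 with test compound, reaction started with quenched fluorogenic peptide 7-MCA-Pro-CHA-Gly-NVal-His-Ala-DPA in Tris-HCl buffer, 1 h at 25 °C, stopped with acetic acid. Fluorescence at Ex 325/Em 405 nm; % inhibition versus enzyme-free and inhibitor-free wells, reported as IC50 (μM).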

[4] = Experimental Example 2, read-out: IC50 MMP1
[5] = Experimental Example 1, read-out: IC50 AG1
[6] = Experimental Example 3, read-out: IC50 MMP13
[7] = MMP-1 inhibitory action, FITC-labeled collagen type I, 37° C. for 3 hr, read-out: IC50 MMP1 (Experimental Example 2)
[8] = aggrecanase-1 inhibitory action, read-out: IC50 AG1 (Experimental Example 1)
[9] = Recombinant Human MMP-13, fluorescent substrate, 25° C. for 1 h, read-out: IC50 MMP13 (Experimental Example 3)

Compound | IC50 [1, 4] [µM] | IC50 [2, 5] [µM] | IC50 [3, 6] [µM] | IC50 [1, 7] [µM] | IC50 [2, 8] [µM] | IC50 [3, 9] [µM]
CC1C(NS(=O)(=O)c2ccc(-c3cc(C(F)(F)F)on3)s2)(C(=O)O)C1(C)c1ccccc1 (stereo not drawn) [Example 2-597] | ≥ 1 | ≥ 1 | ≥ 10 |  |  | 
CC1[C@H](c2ccccc2)[C@]1(NS(=O)(=O)c1ccc(-n2cc(C(F)(F)F)cn2)cc1)C(=O)O (stereo partly drawn) [Example 2-507] | < 1 | ≥ 1 | < 0.1 |  |  | 
CN1CC=C(c2ccc(S(=O)(=O)N[C@@]3(C(=O)O)C[C@@H]3c3ccccc3)s2)CC1 [Example 2-172] |  |  |  | ≥ 10 | ≥ 10 | ≥ 1
O=C(O)C1(NS(=O)(=O)c2ccc(-c3ccc(Cl)cc3)s2)CC1c1ccccc1O (stereo not drawn) [Example 1-102] |  |  |  | ≥ 1 | < 0.1 | < 1
O=C(O)C1(NS(=O)(=O)c2ccc(-c3cc(C(F)(F)F)on3)s2)CC1c1cc(CCO)on1 (stereo not drawn) [Example 2-316] | ≥ 10 | ≥ 1 | ≥ 10 |  |  | 
O=C(O)[C@]1(NS(=O)(=O)c2ccc(-c3cc(C(F)F)on3)s2)C[C@@H]1c1ccccc1 [Example 2-99] |  |  |  | < 1 | < 0.1 | < 1
CC1[C@H](c2ccccc2)[C@]1(NS(=O)(=O)N1CCN(c2ccc(C(F)(F)F)cc2)CC1)C(=O)O (stereo partly drawn) [Example 2-428] | ≥ 1 | < 1 | < 0.1 |  |  | 
O=C(O)[C@@]1(NS(=O)(=O)c2ccc(-c3ccc(Cl)cc3)s2)C[C@H]1c1ccccc1 [Example 2-192] |  |  |  | ≥ 10 | < 1 | < 1
CC1(c2ccccc2Cl)CC1(NS(=O)(=O)c1ccc(-c2cc(C(F)(F)F)on2)s1)C(=O)O (stereo not drawn) [Example 2-616] | < 1 | < 0.1 | < 1 |  |  | 
Cc1cnn(-c2ccc(S(=O)(=O)N[C@@]3(C(=O)O)C(C)[C@@H]3c3ccccc3)s2)c1 (stereo partly drawn) [Example 2-287] | < 1 | < 0.1 | < 0.1 |  |  | 
CC1[C@H](c2ccccc2)[C@]1(NS(=O)(=O)N1CCN(c2nc3ccccc3s2)CC1)C(=O)O (stereo partly drawn) [Example 2-463] | ≥ 10 | ≥ 1 | ≥ 1 |  |  | 
CC1C(c2ccccc2)C1(NS(=O)(=O)c1ccc(CCc2ccccc2)s1)C(=O)O (stereo not drawn) [Example 2-541] | ≥ 1 | ≥ 1 | ≥ 1 |  |  | 
NC(=O)OCCC1(c2ccccc2)CC1(NS(=O)(=O)c1ccc(-c2ccc(Cl)cc2)s1)C(=O)O (stereo not drawn) [Example 2-295] | ≥ 1 | < 0.1 | < 0.1 |  |  | 
CCc1cc(-c2ccc(S(=O)(=O)N[C@@]3(C(=O)O)C[C@@H]3c3ccccc3)s2)no1 [Example 2-92] |  |  |  | < 1 | < 0.1 | < 0.1
O=C(OCCCc1ccccc1C1CC1(NS(=O)(=O)c1ccc(-c2cc(C(F)(F)F)on2)s1)C(=O)O)N1CC[C@@H](O)C1 (stereo partly drawn) [Example 2-255] |  |  |  | ≥ 1 | < 0.1 | < 0.1
CC(F)(F)c1cc(-c2ccc(S(=O)(=O)N[C@@]3(C(=O)O)C[C@]3(C)c3ccccc3)s2)no1 [Example 2-107] |  |  |  | < 1 | < 0.1 | < 0.1
Cc1cc(-c2ccc(S(=O)(=O)N[C@@]3(C(=O)O)C[C@@H]3c3ccccc3)s2)no1 [Example 2-85] |  |  |  | ≥ 1 | < 1 | < 0.1
O=C(c1cccc(C2CC2(NS(=O)(=O)c2ccc(-c3ccc(Cl)cc3)s2)C(=O)O)c1)N1CCOCC1 (stereo not drawn) [Example 2-73] |  |  |  | ≥ 10 | < 0.1 | < 1
CCOC(=O)c1cc(-c2ccc(S(=O)(=O)N[C@@]3(C(=O)O)C(C)[C@@H]3c3ccccc3)s2)no1 (stereo partly drawn) [Example 2-555] | ≥ 1 | < 1 | < 1 |  |  | 

Compound | IC50 [1, 4] [µM] | IC50 [2, 5] [µM] | IC50 [3, 6] [µM] | IC50 [1, 7] [µM] | IC50 [2, 8] [µM] | IC50 [3, 9] [µM]
CN1CCN(C(=O)CCc2cccc(C3CC3(NS(=O)(=O)c3ccc(-c4cc(C(F)(F)F)on4)s3)C(=O)O)c2)CC1 (stereo not drawn) [Example 2-235] |  |  |  | ≥ 1 | < 1 | < 0.1
O=C(Cc1cccc(C2CC2(NS(=O)(=O)c2ccc(-c3cc(C(F)(F)F)on3)s2)C(=O)O)c1)N[C@H]1CC[C@H](O)CC1 (stereo partly drawn) [Example 2-233] |  |  |  | ≥ 1 | < 1 | < 0.1
CC1[C@H](c2ccccc2)[C@]1(NS(=O)(=O)c1ccc(-c2nc3ccccc3s2)s1)C(=O)O (stereo partly drawn) [Example 2-591] | ≥ 1 | ≥ 1 | < 0.1 |  |  | 
CC1[C@H](c2ccccc2)[C@]1(NS(=O)(=O)c1ccc(-c2ccc(Cl)cc2F)s1)C(=O)O (stereo partly drawn) [Example 2-407] | < 1 | < 0.1 | < 0.1 |  |  | 
CC1[C@H](c2ccccc2)[C@]1(NS(=O)(=O)N1CCCN(c2cccc(Cl)c2)CC1)C(=O)O (stereo partly drawn) [Example 2-471] | ≥ 10 | ≥ 1 | ≥ 1 |  |  | 
CC1[C@H](c2ccccc2)[C@]1(NS(=O)(=O)N1CCN(C/C=C/c2ccccc2)CC1)C(=O)O (stereo partly drawn) [Example 2-537] | ≥ 1 | ≥ 1 | ≥ 1 |  |  | 
CC1[C@H](c2ccccc2)[C@]1(NS(=O)(=O)N1CCN(c2ccc(Cl)c(F)c2)CC1)C(=O)O (stereo partly drawn) [Example 2-459] | ≥ 1 | < 1 | < 0.1 |  |  | 
C[C@@H]1[C@H](c2ccccc2)[C@]1(NS(=O)(=O)N1CCN(c2ccc(C(F)(F)F)cn2)CC1)C(=O)O [Example 2-5, (1S,2R,3R)-2-methyl-3-phenyl-1-[4-(5-trifluoromethyl-pyridin-2-yl)-piperazine-1-sulfonylamino]-cyclopropanecarboxylic acid] |  |  |  | ≥ 1 | < 1 | < 0.1
O=C(O)C1(NS(=O)(=O)c2ccc(-c3ccc(Cl)cc3)cc2)CC1c1cccc(Nc2ccccn2)c1 (stereo not drawn) [Example 1-61] |  |  |  | ≥ 1 | < 1 | < 0.1
O=C(CCc1cccc(C2CC2(NS(=O)(=O)c2ccc(-c3cc(C(F)(F)F)on3)s2)C(=O)O)c1)N1CCOCC1 (stereo not drawn) [Example 2-234] |  |  |  | ≥ 1 | < 0.1 | < 0.1
CC(C)OCCNC(=O)OCC1(c2ccccc2)CC1(NS(=O)(=O)c1ccc(-c2cc(C(F)(F)F)on2)s1)C(=O)O (stereo not drawn) [Example 2-308] | ≥ 1 | < 1 | < 1 |  |  | 
C[C@]1(c2ccccc2)C[C@@]1(NS(=O)(=O)c1ccc(-c2ccc(Cl)cc2)s1)C(=O)O [Example 2-101] |  |  |  | ≥ 1 | < 0.1 | < 1
CC1[C@H](c2ccccc2)[C@]1(NS(=O)(=O)N1CCC(OCc2cccc(Cl)c2)C1)C(=O)O (stereo partly drawn) [Example 2-549] | ≥ 1 | ≥ 1 | ≥ 1 |  |  | 
O=C(O)[C@]1(NS(=O)(=O)c2ccc3c(c2)Cc2cc(F)ccc2-3)C[C@@H]1c1ccccc1 [Example 2-141] |  |  |  | ≥ 1 | < 1 | < 0.1
CC1[C@H](c2ccccc2)[C@]1(NS(=O)(=O)c1ccc(-n2cc(C(F)(F)F)cn2)nc1)C(=O)O (stereo partly drawn) [Example 2-556] | ≥ 1 | ≥ 1 | < 0.1 |  |  | 
COc1ccccc1C1(C)CC1(NS(=O)(=O)c1ccc(-c2cc(C(F)(F)F)on2)s1)C(=O)O (stereo not drawn) [Example 2-613] | < 1 | < 0.1 | ≥ 1 |  |  | 
COc1cccc(C2CC2(NS(=O)(=O)c2ccc(-c3ccc(Cl)cc3)cc2)C(=O)O)c1 (stereo not drawn) [Example 1-12] |  |  |  | ≥ 1 | < 1 | < 0.1
O=C(O)[C@]1(NS(=O)(=O)c2ccc(-c3cccc(C(F)(F)F)c3)s2)C[C@@H]1c1ccccc1 [Example 2-134] |  |  |  | ≥ 10 | ≥ 10 | < 1
COc1ccc2[nH]c(-c3ccc(S(=O)(=O)N[C@@]4(C(=O)O)C(C)[C@@H]4c4ccccc4)s3)nc2c1 (stereo partly drawn) [Example 2-607] | ≥ 1 | ≥ 1 | < 0.1 |  |  | 
